Experiment [1] deals with LNCaP cells. In words: Cell proliferation inhibition assay in LNCaP cells (0.2 nM DHT, CellTiter-Glo, 7 days). Type of experiment: cell-based, human. As to conditions: Homo sapiens, 168 h. On the procedure:
• 1. The human prostate cancer cell lines 22RV1 and LNCaP were purchased from ATCC. […] The cell concentration was adjusted to an appropriate concentration (determined based on the results of cell density optimization experiments), and the cells were seeded into a 96-well plate. A 100 µL cell suspension was added, resulting in 3000 cells per well. […] On the second day, for 22Rv1 cells, test compounds at different concentrations were added, and the cells were incubated at 37°C in a 5% CO2 incubator for 7 days; for LNCaP cells, test compounds at different concentrations were added first, and after 1 hour of treatment, 0.2 nM DHT was added. The cells were then incubated at 37°C in a 5% CO2 incubator for 7 days. • 4. After the incubation period, a volume of CellTiter-Glo detection reagent equal to the volume of the culture medium was added to each well. The plate was shaken and mixed thoroughly for 5 minutes, then incubated at room temperature for 10 minutes. Readings were taken using a PerkinElmer EnVision microplate reader. • 5.
The IC50 curve was fitted and the IC50 value was calculated using the software GraphPad Prism 8 with the calculation formula XY-analysis/Nonlinear regression (curve fit)/Dose response-Inhibition/log (inhibitor) vs. response-Variable slope (four parameters).

The test system of experiment [2] is 22RV1 cells. In words: Cell proliferation inhibition assay in 22RV1 cells (CellTiter-Glo, 7 days). Type of experiment: cell-based, human. To be noted: Homo sapiens. In short, it runs like this: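 LNCaP and 22RV1 human prostate cancer cells, 3000 per well, exposed to graded compound for 7 days at 37°C, 5% CO2; LNCaP got 0.2 nM DHT 1 h after compound. Viability by CellTiter-Glo luminescence; IC50 from four-parameter variable-slope fit.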

pIC50: −log10 of the molar value.

The pIC50 is the IC50 on a negative log10 scale, so that one unit is a factor of ten. Turning to `CC(C)(c1ccc(-c2cnc(OCc3ccnc(N4CC5(CCS5(=N)=O)C4)n3)cn2)cc1)c1cc(Cl)c(OCCCl)c(C#N)c1` (racemic) [Compound 375], the figures for the pIC50 in experiment [1] and in experiment [2] (168 h) were 7.23 and 6.92, respectively.
`CC(C)(c1ccc(-c2ccc(OCc3ccnc(N=S4(=O)CCNCC4)n3)cc2)cc1)c1cc(Cl)c(OCCCl)c(C#N)c1` [Compound 108]: the pIC50 in experiment [1] was 6.52; in experiment [2] (168 h), 7.22.
Taken in the same sequence, the figures for `CC(C)(c1ccc(-c2ccc(OCc3ccnc(N=S4(=O)CCN(CCO)CC4)n3)cc2)cc1)c1cc(Cl)c(OCCCl)c(C#N)c1` [Compound 164] were 6.32 and 7.35.
On to `CC(C)(c1ccc(-c2ccc(OCc3ccnc(N=S4(=O)CCN(CC(F)F)CC4)n3)cn2)cc1)c1cc(Cl)c(OCCCl)c(C#N)c1` [Compound 179], for which the pIC50 was 6.28 in experiment [1] and 6.39 in experiment [2] (168 h).
As for `CC(C)(c1ccc(-c2ccc(OCc3ccnc(N4CC(N=S(C)(C)=O)C4)n3)cc2)cc1)c1cc(Cl)c(OCCCl)c(C#N)c1` [Compound 195], the pIC50 is 6.34 in experiment [1] and 7.42 in experiment [2] (168 h).
For `CC(C)(c1ccc(-c2ccc(OCCOc3nccc(N4CC5(COC5)C4)n3)cc2)cc1)c1cc(Cl)c(OCCCl)c(C#N)c1` [Compound 203], the pIC50 in experiment [1] (LNCaP) was 6.36; in experiment [2] (22Rv1, 168 h), 7.33.
Consider `CC(C)(c1ccc(-c2ccc(OCc3ccnc(N4CC5(COC5)C4)n3)nc2)cc1)c1cc(Cl)c(OCCCl)c(C#N)c1` [Compound 209], for which the pIC50 in experiment [1] is 6.38; in experiment [2] (168 h) it was 6.54.
For `CC(C)(O)CN1CCS(=O)(=Nc2nccc(COc3ccc(-c4ccc(C(C)(C)c5cc(Cl)c(OCCCl)c(C#N)c5)cc4)cc3)n2)CC1` [Compound 254], in that order: 6.36 and 6.80.
For `CC(C)(c1ccc(-c2ccc(OCC3CCC4(CC3)CN(c3ccnc(P(C)(C)=O)n3)C4)cc2)cc1)c1cc(Cl)c(OCCCl)c(C#N)c1` [Compound 260], in that order: 6.21 and 6.77.
On to `CC(C)(c1ccc(-c2ccc(OCc3ccnc(N=S4(=O)CCN(CC(F)F)CC4)n3)nc2)cc1)c1cc(Cl)c(OCCCl)c(C#N)c1` [Compound 264], for which the pIC50 in experiment [1] is 6.01; in experiment [2] (168 h), 6.60.
Taken in the same sequence, the figures for `CC(C)(c1ccc(-c2ccc(OCc3ccnc(N=S4(=O)CCC(F)(F)CC4)n3)cc2)cc1)c1cc(Cl)c(OCCCl)c(C#N)c1` [Compound 288] were 6.26 and 7.13.
Taken in the same sequence, the figures for `CC(C)(c1ccc(-c2ccc(OCCN3CCS(=O)(=O)CC3)cc2)cc1)c1cc(Cl)c(OCCCl)c(C#N)c1` [Compound 298] were 6.12 and 6.72.
Taken in the same sequence, the figures for `CC(C)(c1ccc(-c2ccc(OCc3ccc(-c4cnc(N5CC6(C5)CS(=N)(=O)C6)nc4)cc3)cc2)cc1)c1cc(Cl)c(OCCCl)c(C#N)c1` [Compound 317] were 6.57 and 5.98.
As for `CC(C)(c1ccc(-c2cnc(OCC34CC(c5cnc(P(C)(C)=O)nc5)(C3)C4)cn2)cc1)c1cc(Cl)c(OCCCl)c(C#N)c1` [Compound 322], the pIC50 was 6.92 in experiment [1] and 5.98 in experiment [2] (168 h).
Regarding `CC(C)(c1ccc(-c2ccc(OCC3CCC(CN4CC5(COC5)C4)CC3)cc2)cc1)c1cc(Cl)c(OCCCl)c(C#N)c1` (centres unmarked) [Compound 333], the pIC50 in experiment [1] is 6.17; in experiment [2] (168 h), 6.49.
`CC(C)(c1ccc(-c2cnc(OCc3ccnc(N4CC(S(C)(=O)=O)C4)n3)nc2)cc1)c1cc(Cl)c(OCCCl)c(C#N)c1` [Compound 342]: the pIC50 in experiment [1] is 6.30; in experiment [2] (168 h), 6.07.
For `CC(C)(c1ccc(-c2ccc(OCc3ccnc(N4CC(S(=N)(=O)C5CC5)C4)n3)nc2)cc1)c1cc(Cl)c(OCCCl)c(C#N)c1` (centres unmarked) [Compound 356], in that order: 6.39 and 6.10.
With `CC(C)(c1ccc(-c2ccc(OCc3ccnc(N4CC(S(C)(=N)=O)C4)n3)nc2)cc1)c1cc(Cl)c(OCCCl)c(C#N)c1` (centres unmarked) [Compound 357], the pIC50 in experiment [1] (LNCaP) is 6.36; in experiment [2] (22Rv1, 168 h), 6.08.
For the compound `CC(C)(c1ccc(-c2ccc(OCc3nccnc3P(C)(C)=O)cc2)cc1)c1cc(Cl)c(OCCCl)c(C#N)c1` [Compound 358], the pIC50 in experiment [1] was 6.62; in experiment [2] (168 h) it was 6.24.
For `CC(C)(c1ccc(-c2ccc(OCc3ccc(-c4ccc(P(C)(C)=O)nc4)cc3)cc2)cc1)c1cc(Cl)c(OCCCl)c(C#N)c1` [Compound 359], in that order: 7.13 and 6.64.
For `CC(C)(c1ccc(-c2cnc(OCc3ccc(-c4cnc(P(C)(C)=O)nc4)cc3)cn2)cc1)c1cc(Cl)c(OCCCl)c(C#N)c1` [Compound 361], in that order: 6.40 and 6.60.
Consider `CC1(CO)CN(c2nccc(COc3cnc(-c4ccc(C(C)(C)c5cc(Cl)c(OCCCl)c(C#N)c5)cc4)cn3)n2)C1` [Compound 365], for which the pIC50 in experiment [1] was 6.26; in experiment [2] (168 h) it was 6.03.
Taken in the same sequence, the figures for `CC(C)(c1ccc(-c2cnc(OCc3ccc(-c4cnc(P(C)(C)=O)nc4)nc3)cn2)cc1)c1cc(Cl)c(OCCCl)c(C#N)c1` [Compound 373] were 6.60 and 6.19.
For `CC(C)(c1ccc(-c2cnc(OCc3ccnc(N4CC5(CCS(=N)(=O)CC5)C4)n3)cn2)cc1)c1cc(Cl)c(OCCCl)c(C#N)c1` [Compound 377], in that order: 7.00 and 6.42.
As to `CC(C)(c1ccc(-c2ccc(OCc3ccc(-c4cnc(N5CC(S(C)(=O)=O)C5)nc4)cc3)c(C#N)c2)cc1)c1cc(Cl)c(OCCCl)c(C#N)c1` [Compound 382], the pIC50 in experiment [1] was 6.39; in experiment [2] (168 h), 6.07.
With `CC(C)(c1ccc(-c2cnc(COc3ccnc(P(C)(C)=O)n3)nc2)cc1)c1cc(Cl)c(OCCCl)c(C#N)c1` [Compound 385], the values for the negative-log IC50 (pIC50) in experiment [1] and in experiment [2] (168 h) were 6.66 and 6.24, respectively.
Taken in the same sequence, the figures for `CC(C)(c1ccc(-c2cnc(OCc3ccnc(N4CC(N=S(C)(C)=O)C4)n3)cn2)cc1)c1cc(Cl)c(OCCCl)c(C#N)c1` [Compound 388] were 6.28 and 6.43.
Taken in the same sequence, the figures for `CC(C)(c1ccc(-c2ccc(OCc3ccc(-c4ccc(P(C)(C)=O)nn4)cc3)cc2)cc1)c1cc(Cl)c(OCCCl)c(C#N)c1` [Compound 394] were 7.12 and 6.96.
For `CC(C)(c1ccc(-c2ccc(OCc3ccc(-c4cnc(P(C)(C)=O)nc4)cn3)nc2)cc1)c1cc(Cl)c(OCCCl)c(C#N)c1` [Compound 397], in that order: 6.96 and 6.02.
Turning to `CC(C)(c1ccc(-c2ccc(OCc3ccc(-c4cnc(P(C)(C)=O)nc4)nc3)nc2)cc1)c1cc(Cl)c(OCCCl)c(C#N)c1` [Compound 398], the values for the pIC50 in experiment [1] and in experiment [2] (168 h) were 6.92 and 6.29, respectively.
For `CC(C)(c1ccc(-c2cnc(OCc3cnc(-c4cnc(P(C)(C)=O)nc4)cn3)nc2)cc1)c1cc(Cl)c(OCCCl)c(C#N)c1` [Compound 402], in that order: 7.00 and 6.18.
Taken in the same sequence, the figures for `CC(C)(c1ccc(-c2ccc(OCc3cnc(-c4cnc(P(C)(C)=O)nc4)cn3)nc2)cc1)c1cc(Cl)c(OCCCl)c(C#N)c1` [Compound 410] were 4.57 and 6.06.
`CN=S(C)(=O)C1CN(c2nccc(COc3ccc(-c4ccc(C(C)(C)c5cc(Cl)c(OCCCl)c(C#N)c5)cc4)nc3)n2)C1` (centres unmarked) [Compound 414]: the results for the pIC50 in experiment [1] and in experiment [2] (168 h) were 6.44 and 6.03, respectively.
Taken in the same sequence, the figures for `CC(C)(c1ccc(-c2ccc(OCc3ccc(-c4cnc(P(C)(C)=O)cn4)cc3)cc2)cc1)c1cc(Cl)c(OCCCl)c(C#N)c1` [Compound 419] were 6.89 and 6.89.
Regarding `CC(C)(c1ccc(-c2cnc(OCC34CC(c5cnc(P(C)(C)=O)nc5)(C3)C4)nc2)cc1)c1cc(Cl)c(OCCCl)c(C#N)c1` [Compound 421], the pIC50 in experiment [1] was 6.22; in experiment [2] (168 h) it was 6.46.
Taken in the same sequence, the figures for `CC(C)(c1ccc(-c2ccc(OCc3ccnc(N4CC5(C4)CS(=N)(=O)C5)n3)cn2)cc1)c1cc(Cl)c(OCCCl)c(C#N)c1` [Compound 422] were 6.28 and 6.16.
Taken in the same sequence, the figures for `CC(C)(c1ccc(-c2ncc(OCc3ccc(-c4cnc(P(C)(C)=O)cn4)cc3)cn2)cc1)c1cc(Cl)c(OCCCl)c(C#N)c1` [Compound 424] were 6.51 and 6.18.
Taken in the same sequence, the figures for `CC(C)(c1ccc(-c2cnc(COc3ccnc(P(C)(C)=O)n3)cn2)cc1)c1cc(Cl)c(OCCCl)c(C#N)c1` [Compound 432] were 6.18 and 6.08.
As for `CC(C)(c1ccc(-c2ccc(OCc3ccnc(N=S4(=O)CCN(CC(O)c5ccccc5)CC4)n3)cc2)cc1)c1cc(Cl)c(OCCCl)c(C#N)c1` (centres unmarked) [Compound 435], the pIC50 in experiment [1] is 6.19; in experiment [2] (168 h), 6.74.
`CC(C)(c1cc(Cl)c(OCCCl)c(C#N)c1)c1ccc(-c2ccc(OCc3ccnc(N4CC(S(C)(=O)=O)C4)n3)nc2)cn1` [Compound 478] had a pIC50 in experiment [1] of 6.11.
The same measure, in the same setting: then `CC(C)(c1cc(Cl)c(OCCCl)c(C#N)c1)c1ccc(-c2ccc(OCc3ccnc(N4CC(S(C)(=N)=O)C4)n3)nc2)cn1` (centres unmarked) [Compound 479], with 6.15.
